Assay results reported in article PMC11729428, “New Potent Inhibitor of Transforming Growth Factor-Beta (TGFβ) Signaling that is Efficacious against Microsatellite Stable Colorectal Cancer Metastasis in Combination with Immune Checkpoint Therapy in Mice” (ACS Pharmacology & Translational Science, 2024).

Columns and labels:
[1] = design: method as in PMID 24786585; details: rats (♀ SD), oral, 10 mg/kg ref 18; cited from earlier work
[2] = test system: mouse tumor organoids (MTOs), CRC liver metastases; design: method as in PMID 29443964; details: murine CRC liver metastasis model ref 5; cited from earlier work
ALK1 (ACVRL1) = target: T1, ALK1 (ACVRL1) (Homo sapiens, UniProt P37023); design: method as in earlier work; details: reported data ref 15; read-out: Binding constant (Kd) ALK1 (ACVRL1); cited from earlier work
T1 construct: purchased Eurofins/DiscoveryX (KINOMEscan service)
T1 sequence (P37023 22-503): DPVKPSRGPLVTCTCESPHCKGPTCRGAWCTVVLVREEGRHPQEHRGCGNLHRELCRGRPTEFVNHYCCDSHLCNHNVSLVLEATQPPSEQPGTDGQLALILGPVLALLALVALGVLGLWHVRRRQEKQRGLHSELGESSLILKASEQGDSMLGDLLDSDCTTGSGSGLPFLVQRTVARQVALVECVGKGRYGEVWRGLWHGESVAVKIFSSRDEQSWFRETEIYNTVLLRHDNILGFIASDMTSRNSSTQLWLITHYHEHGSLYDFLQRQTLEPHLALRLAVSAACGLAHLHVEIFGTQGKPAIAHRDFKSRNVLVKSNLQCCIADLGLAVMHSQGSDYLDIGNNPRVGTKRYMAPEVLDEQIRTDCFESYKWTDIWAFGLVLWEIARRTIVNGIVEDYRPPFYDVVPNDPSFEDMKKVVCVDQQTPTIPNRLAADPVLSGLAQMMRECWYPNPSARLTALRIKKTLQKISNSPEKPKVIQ

ALK2 (ACVR1) = target: T2, ALK2 (ACVR1) (Homo sapiens, UniProt Q04771); design: method as in earlier work; details: reported data ref 15; read-out: Binding constant (Kd) ALK2 (ACVR1); cited from earlier work
T2 construct: purchased Eurofins/DiscoveryX (KINOMEscan service)
T2 sequence (Q04771 21-509): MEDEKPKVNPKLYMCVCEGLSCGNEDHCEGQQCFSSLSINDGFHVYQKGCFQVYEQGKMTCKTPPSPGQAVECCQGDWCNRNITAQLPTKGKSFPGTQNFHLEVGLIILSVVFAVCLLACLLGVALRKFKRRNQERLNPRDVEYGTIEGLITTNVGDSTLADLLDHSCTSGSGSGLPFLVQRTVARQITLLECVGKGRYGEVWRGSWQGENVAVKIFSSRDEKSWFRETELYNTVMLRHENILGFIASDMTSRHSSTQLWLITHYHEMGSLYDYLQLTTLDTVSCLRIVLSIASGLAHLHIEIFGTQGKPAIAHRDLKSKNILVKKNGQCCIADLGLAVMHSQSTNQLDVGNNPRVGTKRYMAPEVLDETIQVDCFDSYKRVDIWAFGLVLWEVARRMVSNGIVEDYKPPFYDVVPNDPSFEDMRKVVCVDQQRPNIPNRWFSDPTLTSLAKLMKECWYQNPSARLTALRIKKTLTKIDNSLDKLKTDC

ALK3 (BMPR1A) = target: T3, ALK3 (BMPR1A) (Homo sapiens, UniProt P36894); design: method as in earlier work; details: reported data ref 15; read-out: Binding constant (Kd) ALK3 (BMPR1A); cited from earlier work
T3 construct: purchased Eurofins/DiscoveryX (KINOMEscan service)
T3 sequence (P36894 24-532): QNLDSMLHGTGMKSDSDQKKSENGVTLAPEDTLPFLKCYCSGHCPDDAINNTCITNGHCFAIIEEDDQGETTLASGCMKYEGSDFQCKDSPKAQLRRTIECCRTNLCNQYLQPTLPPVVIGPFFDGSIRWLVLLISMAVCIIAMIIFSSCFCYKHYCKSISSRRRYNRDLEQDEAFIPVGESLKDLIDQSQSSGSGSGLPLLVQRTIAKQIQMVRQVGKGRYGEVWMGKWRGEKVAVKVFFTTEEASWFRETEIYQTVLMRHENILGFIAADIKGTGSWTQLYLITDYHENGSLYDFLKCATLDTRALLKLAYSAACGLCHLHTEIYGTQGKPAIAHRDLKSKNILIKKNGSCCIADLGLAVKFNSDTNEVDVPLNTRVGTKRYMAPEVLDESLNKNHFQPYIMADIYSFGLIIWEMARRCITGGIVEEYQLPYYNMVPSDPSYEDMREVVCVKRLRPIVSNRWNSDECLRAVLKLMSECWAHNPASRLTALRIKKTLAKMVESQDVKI

ALK6 (BMPR1B) = target: T4, ALK6 (BMPR1B) (Homo sapiens, UniProt O00238); design: method as in earlier work; details: reported data ref 15; read-out: Binding constant (Kd) ALK6 (BMPR1B); cited from earlier work
T4 construct: purchased Eurofins/DiscoveryX (KINOMEscan service)
T4 sequence (O00238 14-502): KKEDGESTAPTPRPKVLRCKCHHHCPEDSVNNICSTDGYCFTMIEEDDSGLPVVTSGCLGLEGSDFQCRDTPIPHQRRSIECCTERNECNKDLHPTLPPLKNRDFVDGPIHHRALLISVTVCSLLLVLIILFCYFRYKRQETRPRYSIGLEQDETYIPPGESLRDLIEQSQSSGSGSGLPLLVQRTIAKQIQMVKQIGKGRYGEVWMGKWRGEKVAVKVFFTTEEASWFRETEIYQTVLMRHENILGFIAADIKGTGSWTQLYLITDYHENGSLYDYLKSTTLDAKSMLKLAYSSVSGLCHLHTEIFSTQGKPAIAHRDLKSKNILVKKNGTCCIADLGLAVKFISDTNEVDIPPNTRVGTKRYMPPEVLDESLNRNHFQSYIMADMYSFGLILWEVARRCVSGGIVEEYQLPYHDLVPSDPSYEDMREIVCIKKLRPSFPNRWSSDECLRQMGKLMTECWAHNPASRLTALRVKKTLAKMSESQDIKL

ACVR2B = target: T5, ACVR2B (Homo sapiens, UniProt Q13705); design: method as in earlier work; details: reported data ref 15; read-out: Binding constant (Kd) ACVR2B; cited from earlier work
T5 construct: purchased Eurofins/DiscoveryX (KINOMEscan service)
T5 sequence (Q13705 19-512): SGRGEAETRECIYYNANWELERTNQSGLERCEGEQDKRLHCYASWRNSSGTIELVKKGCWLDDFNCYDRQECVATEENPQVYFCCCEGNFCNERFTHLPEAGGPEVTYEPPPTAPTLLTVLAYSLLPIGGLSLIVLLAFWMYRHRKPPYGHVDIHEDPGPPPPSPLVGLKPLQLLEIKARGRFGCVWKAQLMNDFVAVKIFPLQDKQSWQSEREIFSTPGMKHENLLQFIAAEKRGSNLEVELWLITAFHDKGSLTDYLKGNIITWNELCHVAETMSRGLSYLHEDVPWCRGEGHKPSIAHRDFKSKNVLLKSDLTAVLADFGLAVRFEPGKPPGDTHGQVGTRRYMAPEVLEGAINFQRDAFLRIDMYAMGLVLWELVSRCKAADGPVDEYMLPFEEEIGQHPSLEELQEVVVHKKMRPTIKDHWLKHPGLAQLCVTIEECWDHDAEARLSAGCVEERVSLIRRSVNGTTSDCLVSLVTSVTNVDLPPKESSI

TGFBR2 = target: T6, TGFBR2 (Homo sapiens, UniProt P37173); design: method as in earlier work; details: reported data ref 15; read-out: Binding constant (Kd) TGFBR2; cited from earlier work
T6 construct: purchased Eurofins/DiscoveryX (KINOMEscan service)
T6 sequence (P37173 23-567): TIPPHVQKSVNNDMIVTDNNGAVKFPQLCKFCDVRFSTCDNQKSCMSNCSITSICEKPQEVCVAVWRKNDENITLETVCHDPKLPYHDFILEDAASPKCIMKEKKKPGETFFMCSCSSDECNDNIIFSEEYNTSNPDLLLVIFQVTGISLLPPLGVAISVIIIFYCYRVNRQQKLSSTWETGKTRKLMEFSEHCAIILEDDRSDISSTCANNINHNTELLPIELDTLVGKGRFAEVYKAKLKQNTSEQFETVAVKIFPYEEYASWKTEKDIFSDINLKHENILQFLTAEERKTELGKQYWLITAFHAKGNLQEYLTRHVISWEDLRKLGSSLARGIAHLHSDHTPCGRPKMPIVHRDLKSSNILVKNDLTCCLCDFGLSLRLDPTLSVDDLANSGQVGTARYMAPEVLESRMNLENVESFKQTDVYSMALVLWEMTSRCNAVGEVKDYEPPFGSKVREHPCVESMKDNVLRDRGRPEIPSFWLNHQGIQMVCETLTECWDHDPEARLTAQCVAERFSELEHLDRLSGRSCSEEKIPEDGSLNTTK

ALK5 (TGFBR1) = target: T7, ALK5 (TGFBR1) (Homo sapiens, UniProt P36897, T204D); experiment: Radiometric in vitro kinase activity assay (Kinase Profiler); format: biochemical
T7 sequence (P36897 200-503 T204D): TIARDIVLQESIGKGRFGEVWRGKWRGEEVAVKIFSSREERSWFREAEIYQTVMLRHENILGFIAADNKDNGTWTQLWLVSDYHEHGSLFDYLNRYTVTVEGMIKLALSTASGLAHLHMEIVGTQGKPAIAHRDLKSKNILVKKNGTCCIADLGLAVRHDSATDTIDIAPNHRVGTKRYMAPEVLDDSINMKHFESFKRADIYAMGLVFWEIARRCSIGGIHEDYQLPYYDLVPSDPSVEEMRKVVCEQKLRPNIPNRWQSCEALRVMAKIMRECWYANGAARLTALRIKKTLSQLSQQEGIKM
Description: 5. Methods for In vitro characterizations of HYL001
Kinase affinity and selectivity […]
The activity, measured as IC50, of inhibitors was determined by radiometric γ-33P-ATP-mediated in vitro phosphorylation assays, using the Kinase Profiler service from Eurofins Pharma Discovery Services (Wolverhampton, UK) and Eurofins Cerep (Celle L’Evescault, France). Compounds, prepared in 100% DMSO, were tested using a 9-point curve with half -log serial dilutions (1–10,000 nM). […]

[3] = Plasma protein binding by rapid equilibrium dialysis, human plasma; details: for fraction unbound at 4 h, 5 µM: plasma
Description: (§1) 5. Methods for In vitro characterizations of HYL001 […]
(§2) Rapid equilibrium dialysis was performed in triplicates with a rapid equilibrium dialysis (RED) by Sai Life Sciences Lt. (Telangana, India). The RED device contains a dialysis membrane with a molecular weight cut -off […]
(§3) of 8,000 Da, separating two chambers for plasma and buffer, respectively. […]
(§4) were added to the plasma chamber, versus phosphate buffer saline (pH 7.4) to the buffer chamber. Dialysis was performed for 4 h with 100 RPM shaking at 37 °C. […]
(§5) compounds in plasma were either frozen immediately (T0 sample), or incubated at 37 °C for 4 h without dialysis (non-dialysed), respectively.
(§6) Following dialysis, an aliquot was removed from either chamber and diluted with equal volume of opposite matrix to nullify the matrix effect. Similarly, buffer was added to recovery and stability samples. Next, acetonitrile (containing internal standard, glipizide) was added to the mixtures for protein precipitation and vortexed for 5 minutes. The samples were centrifuged at 4000 RPM at 4 °C for 10 min and the supernatant was submitted for liquid chromatography mass spectrometry (LC-MS/MS) analysis. Samples were monitored for parent compound using multiple reaction monitoring (MRM) mode.
(§7) The peak area ratios (PAR, analyte versus internal standard) in plasma vs bufffer were used to determine the fraction of compound bound to plasma proteins. The following equation was used to determine the extent of plasma protein binding: percent free drug = 100% x (PARbuffer / PARplasma); percent bound drug = 100 - % free drug. Recovery was calculated as 100% x (PARplasma + PARbuffer)dialysed / (PARplasma)non-dialysed; stability as 100% x (PAR)non-dialysed / (PARplasma)frozen at T0. […]

[4] = Plasma protein binding by rapid equilibrium dialysis, mouse plasma
Description: as §1, §2, §3, §4, §5, §6, §7

[5] = test system: panel of key proteins (cell receptors, neurotransmitter transporters, and ion channels); experiment: In vitro safety pharmacology, binding (SafetyScreen 44); details: 10 μM HYL001
Description: To identify potential adverse off-target drug interactions and derisk the development of HYL001 as a drug,[22] we performed binding and enzymatic inhibition assays with a panel of key proteins (mainly cell receptors, neurotransmitter transporters, and ion channels). […]
analysis by LC-MS/MS, using MRM mode. […]
related to phase I and phase II metabolism, respectively.
The PARs were used for calculation of metabolic stability. The 0 min area ratio was considered as 100%. The […]
incubation volume / number of cells (in millions) x K e. To calculate into full body context, the values of 120 […]
In vitro safety pharmacology […]
compared with historical values determined at Eurofins. Binding was defined as the % inhibition of the signal […]
enzyme activity. […] Results showing
The tail current amplitude, induced by a one […]
and expressed as % inhibition.
The Ames test was performed at Xenomatrix (Allschwil, Switzerland). Bacteria from the S. typhimurium

hERG potassium channel [6] = target: T8, hERG potassium channel (Homo sapiens, UniProt Q12809); experiment: in vitro; details: CHO-K1 cells (hERG current)
T8 sequence (Q12809 whole entry): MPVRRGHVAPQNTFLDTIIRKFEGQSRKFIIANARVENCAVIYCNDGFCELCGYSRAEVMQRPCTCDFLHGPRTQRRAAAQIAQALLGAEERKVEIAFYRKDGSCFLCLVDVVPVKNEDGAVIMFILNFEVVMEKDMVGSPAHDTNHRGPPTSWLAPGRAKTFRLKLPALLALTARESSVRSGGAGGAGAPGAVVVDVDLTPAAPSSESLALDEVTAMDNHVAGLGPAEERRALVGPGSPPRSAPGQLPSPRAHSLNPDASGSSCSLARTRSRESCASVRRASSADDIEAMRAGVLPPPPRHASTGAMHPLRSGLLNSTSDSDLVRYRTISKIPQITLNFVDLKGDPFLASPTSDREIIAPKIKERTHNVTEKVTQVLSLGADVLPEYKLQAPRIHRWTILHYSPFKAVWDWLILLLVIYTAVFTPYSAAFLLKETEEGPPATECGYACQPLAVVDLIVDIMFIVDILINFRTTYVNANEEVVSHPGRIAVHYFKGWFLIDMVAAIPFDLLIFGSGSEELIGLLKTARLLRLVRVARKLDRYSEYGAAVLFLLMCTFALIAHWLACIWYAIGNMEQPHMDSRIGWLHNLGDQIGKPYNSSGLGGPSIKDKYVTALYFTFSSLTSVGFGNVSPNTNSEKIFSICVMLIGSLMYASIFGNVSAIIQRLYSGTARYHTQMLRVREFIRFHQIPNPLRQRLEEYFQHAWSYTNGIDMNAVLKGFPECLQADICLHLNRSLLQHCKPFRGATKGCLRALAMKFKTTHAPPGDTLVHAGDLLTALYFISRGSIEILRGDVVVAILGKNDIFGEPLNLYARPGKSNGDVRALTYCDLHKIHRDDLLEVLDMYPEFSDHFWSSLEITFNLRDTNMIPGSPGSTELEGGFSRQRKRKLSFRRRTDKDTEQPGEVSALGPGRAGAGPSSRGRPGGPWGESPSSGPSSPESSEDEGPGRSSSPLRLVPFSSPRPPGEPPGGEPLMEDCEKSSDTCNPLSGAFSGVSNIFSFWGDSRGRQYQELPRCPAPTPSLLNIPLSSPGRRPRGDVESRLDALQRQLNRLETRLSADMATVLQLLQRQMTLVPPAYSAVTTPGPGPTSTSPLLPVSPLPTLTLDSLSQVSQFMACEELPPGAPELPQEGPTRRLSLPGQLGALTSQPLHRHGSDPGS
Description: (§8) clamp (Eurofins, Celle L’Evescault, France) on CHO -K1 cells. The tail current amplitude, induced by a one
(§9) second test pulse to -40 mV after a two second pulse to +20 mV, was measured before and aft er drug incubation

hERG potassium channel [7] = target: T8, hERG potassium channel; experiment: hERG automated patch clamp on CHO-K1 cells; details: micromolar concentrations
Description: as §8, §9

SMILES: Cc1cccc(-c2[nH]c(CNc3ccccc3F)nc2-c2ccc3ncnn3c2)n1 [vactosertib, N -((4-([1,2,4]Triazolo[1,5-a]Pyridin-6-Yl)-5-(6-Methylpyridin-2-Yl)-1 H -Imidazole-2-Yl)Methyl)-2-Fluoroaniline]
- AUCinf [1]: 1426 ng·h/mL
- Cmax [1]: 1620 ng/mL
- T1/2 [1]: 2.5 h

SMILES: Cc1cccc(-c2nn3c(c2-c2ccnc4ccc(C(N)=O)cc24)CCC3)n1 [galunisertib]
- Efficacious murine dose [2]: 720–800 mg/kg twice daily (BID)
- Kd (ALK1 (ACVRL1)): 24900 nM
- Kd (ALK2 (ACVR1)): 35700 nM
- Kd (ALK3 (BMPR1A)): 16800 nM
- Kd (ALK6 (BMPR1B)): 471 nM
- Kd (ACVR2B): 694 nM
- Kd (TGFBR2): 208 nM

SMILES: Cc1cccc(-c2nn3c(c2-c2ccnc4ccc(O)cc24)CCC3)n1 [HYL001, 4-(2-(6-Methylpyridin-2-yl)-5,6-dihydro-4H-pyrrolo[1,2-b]pyrazol-3-yl)quinolin-6-ol]
- Fold higher ALK5 IC50 than that of vactosertib (ALK5 (TGFBR1)): around 3.5 fold
- Fold increase (in vitro potency) compared to galunisertib (ALK5 (TGFBR1); ALK5 IC50): ~2.5 fold
- IC50 (ALK5 (TGFBR1); recombinant TGFBR1 fragment 200–end (T204D), read-out: kinase inhibition IC50, ALK5 (TGFBR1)): 177 nM
- % Bound Mean ± SD ([3]; human plasma, 5 µM, n=3): ~91%
- % Compound remaining at 4 hrs ([3]; human plasma, 37 °C): 101.1%
- recovery at 4 h, 5 µM ([3]; human, plasma (rapid equilibrium dialysis device), pH 7.4): 101%
- fraction unbound at 4 h, 5 µM ([3]; human, pH 7.4, % Bound Mean ± SD, human plasma, 5 µM, n=3): 0.084
- fraction unbound at 4 h, 5 µM ([3]; human, pH 7.4, % Free fraction, human plasma): 0.084
- % Compound remaining at 4 hrs ([4]; mice plasma, 37 °C): 113.1%
- recovery at 4 h, 5 µM ([4]; mouse, plasma (rapid equilibrium dialysis device), pH 7.4): 112%
- fraction unbound at 4 h, 5 µM ([4]; mouse, plasma, pH 7.4): 0.048
- Inhibition of binding to any safety panel target [5]: ≤ 50%
- inhibition at 3.7 µM (hERG potassium channel [6]): 1.8%
- inhibition at 11.1 µM (hERG potassium channel [6]): 8.4%
- inhibition at 33.3 µM (hERG potassium channel [6]): 22.8%
- hERG inhibition (in words) (hERG potassium channel [7]): low inhibition
